Assay results reported in patent US20080234188A1, “Antimicrobial Peptides” (The Hospital for Sick Children, priority 2001, published 2008).
Values after ≈ are worked out from the molar mass of the structure shown. Like-named read-outs stand apart in the source and are kept apart here. Where a SMILES comes first, the peptide text is derived from it. Where no end group is shown, it is not given here.

Assays:
[1] = Hydrophobicity (hydropathy) from reverse-phase HPLC retention scale; type: physicochemical; set-up: key to Average Hydrophobicity of Core Sequence / Mean Core segment Hydrophobicity: arithmetic average of Table 1 hydropathy values of constituent residues; key to Hydropathy: hydropathy scale from HPLC retention times of model peptides (Table 1); settings: for Mean residue hydropathy of X-residue peptide / Hydropathy: Table 1; for Hydropathy: of the X-residue, from HPLC retention of KKAAAXAAAAAXAAWAAXAAAKKKK-amide peptides; for Mean Core segment Hydrophobicity: Table 3
Text: The “hydrophobicity value” of an amino acid residue means the hydrophobicity value of that residue as shown in Table 1 or as calculated by the method described herein.
The “hydrophobicity value” of an amino acid sequence or peptide means the arithmetic average of the individual hydrophobicity values of the constituent amino acid residues of the sequence.
Various hydrophobicity scales for proteins and amino acids have been described in the literature but the inventors have established the hydrophobicity scale of Table 1 based on the retention times on HPLC of a series of hydrophobic model peptides, as described in Liu and Deber (1998), Biopolymers (Peptide Science), v. 47, pp. 41-62).
The hydrophobicity value shown for each amino acid in Table 1 as “hydropathy” may be used as the hydrophobicity value for that amino acid in any peptide whose hydrophobicity value has to be calculated. The “average hydrophobicity” of a peptide containing amino acids shown in Table 1 is calculated by determining the arithmetic average of the Table 1 “hydropathy” values for the constituent amino acids of the sequence.
Peptides in accordance with the invention may also include other amino acids. For an amino acid not included in Table 1, the hydrophobicity value may be determined by the same method as described herein for obtaining the values of Table 1. For example, a peptide such as KKAAAXAAAAAXAAXAAXAAAKKKK-amide (Sequence ID No: 1) may be synthesized, where X is the amino acid whose hydrophobicity value is to be determined, and the retention time of the peptide on HPLC is determined, as described in the Examples. Similar peptides where X is Lys or Phe are also prepared and their HPLC retention times determined. The retention time, Rx, is converted to the hydropathy value H for the selected amino acid using the equation
H=(10×ΔtRx-Lys/ΔtRPhe-Lys)−5.00
where ΔtRx-Lys=retention time difference in minutes between Rx and the retention time of the most hydrophilic peptide tested (X=Lys) and where ΔtRPhe-Lys=retention time difference in minutes between the most hydrophobic peptide tested (X=Phe) and the most hydrophilic (X=Lys).
The retention time of each peptide was determined on a C4 reversed-phase column (4.6×250 mm, 300 A pore size, 10 μ particle size). Equal amounts of each peptide were injected into the column and eluted at a flow rate of 1 mL/min, utilizing a linear AB gradient (2% B/min), where buffer A was 0.1% TFA/ddH2O, and buffer B was 0.1% TFA/acetonitrile. The retention time of each peptide reported here was the average of triplicate measurements.

E. coli UB1005 = type: cell-based, Escherichia coli
Text: (§1) The bacterial strains used were E. coli C498, E. coli C500, Escherichia coli UB1005 and its antibiotic supersusceptible derivative DC2 (22); a clinical isolate of Staphylococcus epidermidis (C621); coryneform bacterial strain Corynebacterium xerosis (C875); and E. coli ATCC 25922, Staphylococcus aureus ATCC 25923, Enterococcus faecalis ATCC 29212, Bacillus subtilis ATCC 6633 and Pseudomonas aeruginosa ATCC 27853, all from American Type Culture Collection.
(§2) Peptide antibacterial activity was assessed by the method of R. Hancock et al. (Wu & Hancock (1999), J. Biol. Chem., v. 274, pp. 29-35). Test strains of bacteria from Mueller Hinton agar (MHA) plates were inoculated into 5 ml Mueller Hinton Broth (MHB) in tubes and grown overnight at 37° C. on a shaker (180 rpm). Serial dilutions of test peptides (at 10 times the required test concentrations) were made in 0.01% acetic acid, 0.2% BSA, in polypropylene or coated glass tubes as follows: the test peptide was (a) dissolved in distilled water at 20 times the required maximum concentration (enough final volume for all tests to be performed on a given day); (b) diluted into an equal volume of 0.02% acetic acid, 0.4% BSA to give 10 times the required maximum concentration; (c) serial doubling dilutions were performed in 0.01% acetic acid, 0.2% BSA to provide serial dilutions of peptides at 10 times the required test concentrations, e.g., 640, 320, 160, . . . 2.5 μg/ml. (No deleterious effects of long-term storage of peptides in these media have been detected). Overnight bacterial cultures were diluted in MHB to give 2−7×10^5 colony forming units/ml. Bacterial suspension (100 μl) was dispensed in each well; controls without bacteria were maintained in parallel. To each well was added 11 μl of 10× test peptide and plates were incubated at 37° C. for 18-24 hours, and checked again at 40-48 hours. Plates were read visually and at 600 nm in a microplate reader (Molecular Devices).
(§3) A further number of the peptides of the invention were tested for antimicrobial activity against a range of Gram-positive and Gram-negative bacteria by the assay described immediately before Example 1.

E. coli DC2 = experiment: Assay of antibacterial activity (MIC), E. coli DC2; type: cell-based, Escherichia coli; settings: Table 3; Gram-negative
Text: as §1, §2, §3

[2] = tested on: Corynebacterium xerosis (C875); type: cell-based
Text: as §1, §2
(§4) were synthesized. The antibacterial activity of these peptides was determined against both Gram-positive bacteria ([…], Corynebacterium xerosis) and Gram-negative bacteria (various strains of E. coli). The results are shown in Table 2, along with the average hydrophobicity of each peptide, calculated as described herein.
as §3

[3] = tested on: Staphylococcus epidermidis (C621); type: cell-based
Text: as §1, §2, §4, §3

| Compound | Mean residue hydropathy of X-residue peptide [1] | Hydropathy [1] | MIC E. coli UB1005 (E. coli UB1005; UB1005) | MIC E. coli DC2 (E. coli DC2) | MIC C. xerosis C875 [2] | MIC S. epidermidis C621 ([3]; C621) | Mean Core segment Hydrophobicity [1] | MIC E. coli UB1005 (E. coli UB1005; Table 3, Gram-negative) | Antimicrobial activity, spectrum (in words) ([2]; Example 5, active on C. xerosis, not on the other bacteria tested) | MIC C. xerosis C875 ([2]; Table 3, Gram-positive) | MIC S. epidermidis C621 ([3]; Table 3, Gram-positive) |
| --- | --- | --- | --- | --- | --- | --- | --- | --- | --- | --- | --- |
| Asp: KKAAAXAAAAAXAAWAAXAAAKKKK-amide peptide with X-residue Asp (KKAAADAAAAADAAWAADAAAKKKK-NH2) | 0.00 | −2.49 | – | – | – | – | – | – | – | – | – |
| C[C@H](NC(=O)[C@H](C)NC(=O)[C@H](C)NC(=O)[C@H](CC(N)=O)NC(=O)[C@H](C)NC(=O)[C@H](C)NC(=O)[C@H](C)NC(=O)[C@H](CCCCN)NC(=O)[C@@H](N)CCCCN)C(=O)N[C@@H](C)C(=O)N[C@@H](C)C(=O)N[C@@H](CC(N)=O)C(=O)N[C@@H](C)C(=O)N[C@@H](C)C(=O)N[C@@H](Cc1c[nH]c2ccccc12)C(=O)N[C@@H](C)C(=O)N[C@@H](C)C(=O)N[C@@H](CC(N)=O)C(=O)N[C@@H](C)C(=O)N[C@@H](C)C(=O)N[C@@H](C)C(=O)N[C@@H](CCCCN)C(=O)N[C@@H](CCCCN)C(=O)N[C@@H](CCCCN)C(=O)N[C@@H](CCCCN)C(N)=O [N] (H-KKAAANAAAAANAAWAANAAAKKKK-NH2; N-terminus assumed) | −0.16 | −3.79 | >64 µM | >64 µM | >64 µM | >64 µM | −0.21 | – | – | – | – |
| Gln: KKAAAXAAAAAXAAWAAXAAAKKKK-amide peptide with X-residue Gln (KKAAAQAAAAAQAAWAAQAAAKKKK-NH2) | −0.04 | −2.75 | – | – | – | – | – | – | – | – | – |
| CC(C)[C@H](NC(=O)[C@H](C)NC(=O)[C@H](C)NC(=O)[C@H](C)NC(=O)[C@H](CCCCN)NC(=O)[C@@H](N)CCCCN)C(=O)N[C@@H](C)C(=O)N[C@@H](C)C(=O)N[C@@H](C)C(=O)N[C@@H](C)C(=O)N[C@@H](C)C(=O)N[C@H](C(=O)N[C@@H](C)C(=O)N[C@@H](C)C(=O)N[C@@H](Cc1c[nH]c2ccccc12)C(=O)N[C@@H](C)C(=O)N[C@@H](C)C(=O)N[C@H](C(=O)N[C@@H](C)C(=O)N[C@@H](C)C(=O)N[C@@H](C)C(=O)N[C@@H](CCCCN)C(=O)N[C@@H](CCCCN)C(=O)N[C@@H](CCCCN)C(=O)N[C@@H](CCCCN)C(N)=O)C(C)C)C(C)C [V] (H-KKAAAVAAAAAVAAWAAVAAAKKKK-NH2; N-terminus assumed) | 0.87 | 3.02 | – | >32 µM | – | – | 0.87 | >32 µM | activity against gram-positive C. xerosis only | 0.5 µM (≈ 1.17 µg/mL) | >32 µM |
| Glu: KKAAAXAAAAAXAAWAAXAAAKKKK-amide peptide with X-residue Glu (KKAAAEAAAAAEAAWAAEAAAKKKK-NH2) | 0.16 | −1.49 | – | – | – | – | – | – | – | – | – |
| K25: KKAAAXAAAAAXAAWAAXAAAKKKK-amide peptide with X = Lys, most hydrophilic peptide tested (KKAAAKAAAAAKAAWAAKAAAKKKK-NH2) [Peptide K25] | −0.40 | −5.00 | – | – | – | – | – | – | – | – | – |
| His: KKAAAXAAAAAXAAWAAXAAAKKKK-amide peptide with X-residue His (X = His; C-terminal amide) | −0.34 | −4.63 | – | – | – | – | – | – | – | – | – |
| C[C@H](NC(=O)CNC(=O)[C@H](C)NC(=O)[C@H](C)NC(=O)[C@H](C)NC(=O)[C@H](CCCCN)NC(=O)[C@@H](N)CCCCN)C(=O)N[C@@H](C)C(=O)N[C@@H](C)C(=O)N[C@@H](C)C(=O)N[C@@H](C)C(=O)NCC(=O)N[C@@H](C)C(=O)N[C@@H](C)C(=O)N[C@@H](Cc1c[nH]c2ccccc12)C(=O)N[C@@H](C)C(=O)N[C@@H](C)C(=O)NCC(=O)N[C@@H](C)C(=O)N[C@@H](C)C(=O)N[C@@H](C)C(=O)N[C@@H](CCCCN)C(=O)N[C@@H](CCCCN)C(=O)N[C@@H](CCCCN)C(=O)N[C@@H](CCCCN)C(N)=O [G] (H-KKAAAGAAAAAGAAWAAGAAAKKKK-NH2; N-terminus assumed) | −0.13 | −3.31 | >64 µM | >64 µM | >64 µM | >64 µM | −0.13 | – | – | – | – |
| C[C@H](NC(=O)[C@H](C)NC(=O)[C@H](C)NC(=O)[C@@H](NC(=O)[C@H](C)NC(=O)[C@H](C)NC(=O)[C@H](C)NC(=O)[C@H](CCCCN)NC(=O)[C@@H](N)CCCCN)[C@@H](C)O)C(=O)N[C@@H](C)C(=O)N[C@@H](C)C(=O)N[C@H](C(=O)N[C@@H](C)C(=O)N[C@@H](C)C(=O)N[C@@H](Cc1c[nH]c2ccccc12)C(=O)N[C@@H](C)C(=O)N[C@@H](C)C(=O)N[C@H](C(=O)N[C@@H](C)C(=O)N[C@@H](C)C(=O)N[C@@H](C)C(=O)N[C@@H](CCCCN)C(=O)N[C@@H](CCCCN)C(=O)N[C@@H](CCCCN)C(=O)N[C@@H](CCCCN)C(N)=O)[C@@H](C)O)[C@@H](C)O [T] (H-KKAAATAAAAATAAWAATAAAKKKK-NH2; N-terminus assumed) | 0.22 | −1.08 | >64 µM | >64 µM | >64 µM | >64 µM | 0.22 | – | – | – | – |
| Pro: KKAAAXAAAAAXAAWAAXAAAKKKK-amide peptide with X-residue Pro (KKAAAPAAAAAPAAWAAPAAAKKKK-NH2) | −0.39 | −4.92 | – | – | – | – | – | – | – | – | – |
| N=C(N)NCCC[C@H](N)C(=O)O [Arg] | −0.05 | −2.77 | – | – | – | – | – | – | – | – | – |
